According to publication PMC8632988, “Inhibition of SYK and cSrc kinases can protect bone and cartilage in preclinical models of osteoarthritis and rheumatoid arthritis” (Scientific Reports, 2021):
Values joined by “and” are separate entries in the source; they are usually repeats but may differ in a detail not shown here. Equal values may be shown once.

Tested on: DBA/1 mice, CIA model
Assay: Collagen-induced arthritis model in mice
Format: in vivo, mouse
Design: Total AUC Sum (d1-11) / Total AUC Sum (d1-11), Mean: scale not given here
Conditions: MTX 1.5 mg/kg PO; for Summed Prophylactic (Non-Enrollment) Paw Score / Total AUC Sum (d1-11), Prophylactic (Non-Enrollment) Paw Score: QD
Experimental: Collagen-induced arthritis (CIA) model was performed at Bolder BioPATH, USA. Study design and animal usage was approved by Bolder BioPATH’s Institutional Animal Care and Use Committee. CIA was induced in 6–7 week old male DBA/1 mice with body weight of 15–26 g (Harlan, Inc) by intradermal injection of Freund’s Complete Adjuvant (Difco) containing bovine type II collagen (Bolder BioPATH) on day 0 and again on day 21 according to the standard protocol. […] After that mice were randomized into six groups: a control group of four, vehicle group and four treatment groups of ten mice each. […] Each paw was scored daily for inflammation. Therapeutic and prophylactic paws were considered. At study termination mice were euthanized by CO2 inhalation followed by cervical dislocation. Fore paws, hind paws, and knees were removed for microscopy.
Mice were weighed on arthritis days 1, 3, 5, 7, 9, and 11 (prior to necropsy). Daily clinical scores were given for each of the paws (right front, left front, right rear, left rear) on days 1–11 using the following criteria:
After 1–2 days in fixative and 4–5 days in 5% formic acid for decalcification, tissues were trimmed, processed for paraffin embedding, sectioned at 8 µm and stained with toluidine blue. Hind paws and knees were embedded and sectioned in the frontal plane. Two joints from each animal were processed for histopathology evaluation. The joints were then scored by two independent readers as indicated below. When scoring, severity of changes as well as number of individual joints affected were considered. When only 1–3 joints of the paws or ankles out of a possibility of numerous metacarpal/metatarsal/digit or tarsal/tibiotarsal joints were affected, an arbitrary assignment of a maximum score of 1, 2 or 3 for parameters below was given depending on severity of changes. If more than 3 joints were involved, the criteria below were applied to the most severely affected/majority of joints.

[1] = all joints, QD (Group 3), group mean
[2] = all joints, QD (Group 3), individual animals

CN(Cc1cnc2nc(N)nc(N)c2n1)c1ccc(C(=O)N[C@@H](CCC(=O)O)C(=O)O)cc1 [MTX, methotrexate, reference compound]
Summed Prophylactic (Non-Enrollment) Paw Score (Day 11, group mean): 7.40 | Summed Prophylactic (Non-Enrollment) Paw Score (Day 11, individual animals): 6 and 5 and 4 and 14 and 10 and 8 | Total AUC Sum (d1-11), Prophylactic (Non-Enrollment) Paw Score (group mean): 52.20 | Total AUC Sum (d1-11), Prophylactic (Non-Enrollment) Paw Score (individual animals): 41.0 and 33.5 and 35.0 and 16.0 and 80.0 and 101.0 and 88.0 and 58.0 and 34.5 | % inhibition, Bone Resorption score (all joints, QD (Group 3)): 8% | % inhibition, Cartilage Damage score (all joints, QD (Group 3)): 3% | % inhibition, Inflammation score (all joints, QD (Group 3)): 4% | % inhibition, Pannus score (all joints, QD (Group 3)): 8% | % inhibition, Periosteal Bone Formation score (all joints, QD (Group 3)): 3% | % inhibition, Periosteal Bone Width (all joints, QD (Group 3)): 6% | % inhibition, Summed Scores (all joints, QD (Group 3)): 5% | Histopathology Scores Bone Resorption, Mean [1]: 1.58 | Histopathology Scores Cartilage Damage, Mean [1]: 3.21 | Histopathology Scores Inflammation, Mean [1]: 3.55 | Histopathology Scores Pannus, Mean [1]: 1.58 | Histopathology Scores Periosteal Bone Formation, Mean [1]: 1.10 | Histopathology Scores Summed Scores, Mean [1]: 11.03 | Periosteal Bone Width (40*25x measure), Mean [1]: 92.67 μm | Histopathology Scores Bone Resorption [2]: 1.17 and 1.67 and 1.08 and 1.00 and 2.33 and 1.58 and 1.25 and 1.83 and 2.25 | Histopathology Scores Cartilage Damage [2]: 1.92 and 3.00 and 1.67 and 2.17 and 4.17 and 4.33 and 3.83 and 3.17 and 4.83 | Histopathology Scores Inflammation [2]: 2.33 and 3.08 and 2.50 and 2.25 and 4.67 and 4.83 and 4.00 and 3.33 and 3.83 | Histopathology Scores Pannus [2]: 1.17 and 1.67 and 1.08 and 1.00 and 2.33 and 1.58 and 1.25 and 1.83 and 2.25 | Histopathology Scores Periosteal Bone Formation [2]: 0.83 and 1.33 and 0.50 and 1.17 and 1.50 | Histopathology Scores Summed Scores [2]: 7.42 and 10.75 and 6.83 and 7.25 and 13.33 and 15.33 and 12.17 and 9.67 and 12.00 and 15.50 | Periosteal Bone Width (40*25x measure) [2]: 80.00 μm and 106.67 μm and 40.00 μm and 140.00 μm and 86.67 μm and 60.00 μm and 146.67 μm | % inhibition to Vehicle, Total AUC Sum (d1-11) (therapeutic/enrollment paw score, QD (Group 3)): 3% | Total AUC Sum (d1-11), Mean (therapeutic/enrollment paw score, QD (Group 3), group mean): 61.65 | Total AUC Sum (d1-11) (therapeutic/enrollment paw score, QD (Group 3), individual animals): 43 and 36 and 65 and 75 and 130 and 82 and 38 and 78 | % inhibition to Vehicle, paw score Day 1 (therapeutic/enrollment paws, Day 1, QD (Group 3)): 0% | Summed Therapeutic (Enrollment) Paw Score Day 1, Mean (therapeutic/enrollment paws, Day 1, QD (Group 3), group mean): 3.20 | Summed Therapeutic (Enrollment) Paw Score Day 1 (therapeutic/enrollment paws, Day 1, QD (Group 3), individual animals): 2 and 4 and 6 | % inhibition to Vehicle, paw score Day 2 (therapeutic/enrollment paws, Day 2, QD (Group 3)): 9% | Summed Therapeutic (Enrollment) Paw Score Day 2, Mean (therapeutic/enrollment paws, Day 2, QD (Group 3), group mean): 4.30 | Summed Therapeutic (Enrollment) Paw Score Day 2 (therapeutic/enrollment paws, Day 2, QD (Group 3), individual animals): 3 and 2 and 5 and 6 and 8 | % inhibition to Vehicle, paw score Day 3 (therapeutic/enrollment paws, Day 3, QD (Group 3)): 12% | Summed Therapeutic (Enrollment) Paw Score Day 3, Mean (therapeutic/enrollment paws, Day 3, QD (Group 3), group mean): 5.20 | Summed Therapeutic (Enrollment) Paw Score Day 3 (therapeutic/enrollment paws, Day 3, QD (Group 3), individual animals): 4 and 3 and 5 and 7 and 9 | % inhibition to Vehicle, paw score Day 4 (therapeutic/enrollment paws, Day 4, QD (Group 3)): −2% | Summed Therapeutic (Enrollment) Paw Score Day 4, Mean (therapeutic/enrollment paws, Day 4, QD (Group 3), group mean): 6.30 | Summed Therapeutic (Enrollment) Paw Score Day 4 (therapeutic/enrollment paws, Day 4, QD (Group 3), individual animals): 4 and 3 and 7 and 8 and 12 and 9 | % inhibition to Vehicle, paw score Day 5 (therapeutic/enrollment paws, Day 5, QD (Group 3)): −2% | Summed Therapeutic (Enrollment) Paw Score Day 5, Mean (therapeutic/enrollment paws, Day 5, QD (Group 3), group mean): 6.70 | Summed Therapeutic (Enrollment) Paw Score Day 5 (therapeutic/enrollment paws, Day 5, QD (Group 3), individual animals): 4 and 7 and 8 and 15 and 9 | % inhibition to Vehicle, paw score Day 6 (therapeutic/enrollment paws, Day 6, QD (Group 3)): −2% | Summed Therapeutic (Enrollment) Paw Score Day 6, Mean (therapeutic/enrollment paws, Day 6, QD (Group 3), group mean): 6.70 | Summed Therapeutic (Enrollment) Paw Score Day 6 (therapeutic/enrollment paws, Day 6, QD (Group 3), individual animals): 4 and 7 and 8 and 15 and 9 | % inhibition to Vehicle, paw score Day 7 (therapeutic/enrollment paws, Day 7, QD (Group 3)): 0% | Summed Therapeutic (Enrollment) Paw Score Day 7, Mean (therapeutic/enrollment paws, Day 7, QD (Group 3), group mean): 6.80 | Summed Therapeutic (Enrollment) Paw Score Day 7 (therapeutic/enrollment paws, Day 7, QD (Group 3), individual animals): 5 and 4 and 7 and 8 and 15 and 9 | % inhibition to Vehicle, paw score Day 8 (therapeutic/enrollment paws, Day 8, QD (Group 3)): 3% | Summed Therapeutic (Enrollment) Paw Score Day 8, Mean (therapeutic/enrollment paws, Day 8, QD (Group 3), group mean): 6.80 | Summed Therapeutic (Enrollment) Paw Score Day 8 (therapeutic/enrollment paws, Day 8, QD (Group 3), individual animals): 5 and 4 and 7 and 8 and 15 and 9 | % inhibition to Vehicle, paw score Day 9 (therapeutic/enrollment paws, Day 9, QD (Group 3)): 5% | Summed Therapeutic (Enrollment) Paw Score Day 9, Mean (therapeutic/enrollment paws, Day 9, QD (Group 3), group mean): 6.90 | Summed Therapeutic (Enrollment) Paw Score Day 9 (therapeutic/enrollment paws, Day 9, QD (Group 3), individual animals): 5 and 4 and 7 and 8 and 15 and 9 | % inhibition to Vehicle, paw score Day 10 (therapeutic/enrollment paws, Day 10, QD (Group 3)): 7% | Summed Therapeutic (Enrollment) Paw Score Day 10, Mean (therapeutic/enrollment paws, Day 10, QD (Group 3), group mean): 6.90 | Summed Therapeutic (Enrollment) Paw Score Day 10 (therapeutic/enrollment paws, Day 10, QD (Group 3), individual animals): 5 and 4 and 7 and 8 and 15 and 9 | % inhibition to Vehicle, paw score Day 11 (therapeutic/enrollment paws, Day 11, QD (Group 3)): 7% | Summed Therapeutic (Enrollment) Paw Score Day 11, Mean (therapeutic/enrollment paws, Day 11, QD (Group 3), group mean): 6.90 | Summed Therapeutic (Enrollment) Paw Score Day 11 (therapeutic/enrollment paws, Day 11, QD (Group 3), individual animals): 5 and 4 and 7 and 8 and 15 and 9
